Test system: Notch signaling (human Notch1 receptor, hNotch1ΔE, CSL luciferase reporter in HeLa cells)
Assay: Notch reporter assay (dual luciferase, HeLa cells transfected with hNotch1ΔE)
Assay type: cell-based
Conditions: compounds and controls at 10 μM
Excerpt: The activation level of Notch signaling can be quantified in vitro reliably by measuring the expression levels of Notch specific target genes. This can be accomplished by the quantification of corresponding mRNA or protein of a particular Notch target gene. Alternatively, cells can be genetically modified to carry a luciferase gene as an artificial Notch target gene, which is expressed in dependence of Notch activity. In this setting, Notch signaling levels can be quantified by measuring the luciferase-derived bioluminescence values.
An according Notch-reporter assay, i.e. a luciferase-based luminescence readout, was used here to quantify the ability of the claimed compounds to augment Notch signaling in a cellular system. […] After 24 hours of transfection, the transfected cells were carefully detached from the dish using 0.5 mM EDTA in PBS and seeded into 96-well plates suitable for luminescence readouts (CORNING, #3610) at 10′000 cells per well. […] Directly after the lysis, first the Firefly and then the Renilla luciferase values were measured consecutively from the same well with a luminescence reader immediately after applying 15 μL per well each of the corresponding enzyme substrates needed to create the luminescence signals (Promega, Dual-Luciferase® Reporter Assay System, #E1910). […]

SMILES: Oc1ccc(C=Cc2cc(O)cc(O)c2)cc1 [RES, Resveratrol]
- Activity Range: weighted arithmetic mean (AVEw) of double-normalized Notch-reporter luminescence, relative to DMSO basis level of 1.0: 1.9 ± 0.5

— US20220354949A1, “NOVEL COMPOUNDS” (XENIOPRO GmbH, priority 2018, published 2022)
